# According to patent publication US8802597B2, “Herbicidal pyrimidines” (E I du Pont de Nemours and Company, priority 2003, dated 2014):
# Experiments:
# Type in all cases: in vivo
# [1] = system: Surinam grass (Brachiaria decumbens); assay: Test B pre/postemergence; conditions: for Surinam Grass plant response rating: Postemergence; for Plant response rating, Surinam Grass: Preemergence
# Procedure, shortened: (§1)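 Plants treated pre- or postemergence were compared visually with controls after 13 to 15 days. Ratings ran from 0, no effect, to 100, complete control.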
# [2] = system: barnyardgrass (Echinochloa crus-galli); assay: Test B pre/postemergence; conditions: Postemergence, scale 0 to 100 (0 no effect, 100 complete control)
# Procedure, shortened: as §1
# [3] = system: cocklebur (Xanthium strumarium); assay: Test B pre/postemergence; conditions: for Cocklebur plant response rating: Postemergence; for Plant response rating, Cocklebur: Preemergence
# Procedure, shortened: as §1
# corn (Zea mays) = assay: Test B pre/postemergence; conditions: for Corn plant response rating: Postemergence; for Plant response rating, Corn: Preemergence
# Procedure, shortened: as §1
# [4] = system: crabgrass (Digitaria sanguinalis); assay: Test B pre/postemergence; conditions: for Crabgrass plant response rating: Postemergence; for Plant response rating, Crabgrass: Preemergence
# Procedure, shortened: as §1
# [5] = system: giant foxtail (Setaria faberii); assay: Test B pre/postemergence; conditions: for Foxtail, Giant plant response rating: Postemergence; for Plant response rating, Foxtail, Giant: Preemergence
# Procedure, shortened: as §1
# [6] = system: lambsquarters (Chenopodium album); assay: Test B pre/postemergence; conditions: Postemergence, scale 0 to 100 (0 no effect, 100 complete control)
# Procedure, shortened: as §1
# [7] = system: morningglory (Ipomoea coccinea); assay: Test B pre/postemergence; conditions: for Morningglory plant response rating: Postemergence; for Plant response rating, Morningglory: Preemergence
# Procedure, shortened: as §1
# [8] = system: pigweed (Amaranthus retroflexus); assay: Test B pre/postemergence; conditions: Postemergence, scale 0 to 100 (0 no effect, 100 complete control)
# Procedure, shortened: as §1
# [9] = system: velvetleaf (Abutilon theophrasti); assay: Test B pre/postemergence; conditions: for Velvetleaf plant response rating: Postemergence; for Plant response rating, Velvetleaf: Preemergence
# Procedure, shortened: as §1
# [10] = system: wheat (Triticum aestivum); assay: Test B pre/postemergence; conditions: for Wheat plant response rating: Postemergence; for Plant response rating, Wheat: Preemergence
# Procedure, shortened: as §1
# [11] = system: blackgrass (Alopecurus myosuroides); assay: Test B postemergence; conditions: scale 0 to 100 (0 no effect, 100 complete control)
# Procedure, shortened: as §1
# wild oat (Avena fatua) = assay: Test B postemergence; conditions: scale 0 to 100 (0 no effect, 100 complete control)
# Procedure, shortened: as §1
# [12] = system: barnyardgrass (Echinochloa crus-galli); assay: Test B flooded paddy test; conditions: Flood, scale 0 to 100
# Procedure, shortened: (§2)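 Visual injury scoring (0 = no effect, 100 = complete control) versus controls made 13 to 15 days after treatment in the greenhouse. Test species were grown in flooded paddy to the 2-leaf stage: rice, barnyardgrass, umbrella sedge, duck salad.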
# [13] = system: duck salad (Heteranthera limosa); assay: Test B flooded paddy test; conditions: Flood, scale 0 to 100
# Procedure, shortened: as §2
# rice (Oryza sativa) = assay: Test B flooded paddy test; conditions: Flood, scale 0 to 100
# Procedure, shortened: as §2
# [14] = system: umbrella sedge (Cyperus difformis); assay: Test B flooded paddy test; conditions: Flood, scale 0 to 100
# Procedure, shortened: as §2
# [15] = 62 g ai/ha, scale 0 to 100 (0 no effect, 100 complete control)
# [16] = 125 g ai/ha, scale 0 to 100 (0 no effect, 100 complete control)
# [17] = 62 g ai/ha, scale 0 to 100, 0 no effect, 100 complete control
smiles,measurement,setting,value
Nc1nc(-c2ccc(Cl)cc2)nc(C(=O)O)c1Br [Compound 88],Surinam Grass plant response rating,[1]; [15],80
same,Surinam Grass plant response rating,[1]; [16],80
same,"Plant response rating, Surinam Grass",[1]; [17],20
same,"Plant response rating, Surinam Grass",[1]; [16],50
same,Barnyardgrass plant response rating,[2]; 62 g ai/ha,90
same,Barnyardgrass plant response rating,[2]; 125 g ai/ha,90
same,Cocklebur plant response rating,[3]; [15],100
same,Cocklebur plant response rating,[3]; [16],100
same,"Plant response rating, Cocklebur",[3]; [17],60
same,"Plant response rating, Cocklebur",[3]; [16],90
same,Corn plant response rating,corn (Zea mays); [15],70
same,Corn plant response rating,corn (Zea mays); [16],80
same,"Plant response rating, Corn",corn (Zea mays); [17],0
same,"Plant response rating, Corn",corn (Zea mays); [16],10
same,Crabgrass plant response rating,[4]; [15],70
same,Crabgrass plant response rating,[4]; [16],80
same,"Plant response rating, Crabgrass",[4]; [17],50
same,"Plant response rating, Crabgrass",[4]; [16],70
same,"Foxtail, Giant plant response rating",[5]; [15],60
same,"Foxtail, Giant plant response rating",[5]; [16],70
same,"Plant response rating, Foxtail, Giant",[5]; [17],10
same,"Plant response rating, Foxtail, Giant",[5]; [16],30
same,Lambsquarters plant response rating,[6]; 62 g ai/ha,100
same,Lambsquarters plant response rating,[6]; 125 g ai/ha,100
same,Morningglory plant response rating,[7]; [15],60
same,Morningglory plant response rating,[7]; [16],90
same,"Plant response rating, Morningglory",[7]; [17],0
same,"Plant response rating, Morningglory",[7]; [16],10
same,Pigweed plant response rating,[8]; 62 g ai/ha,100
same,Pigweed plant response rating,[8]; 125 g ai/ha,100
same,Velvetleaf plant response rating,[9]; [15],90
same,Velvetleaf plant response rating,[9]; [16],100
same,"Plant response rating, Velvetleaf",[9]; [17],70
same,"Plant response rating, Velvetleaf",[9]; [16],90
same,Wheat plant response rating,[10]; [15],50
same,Wheat plant response rating,[10]; [16],60
same,"Plant response rating, Wheat",[10]; [17],50
same,"Plant response rating, Wheat",[10]; [16],70
same,Blackgrass plant response rating,[11]; 62 g ai/ha,40
same,Blackgrass plant response rating,[11]; 125 g ai/ha,60
same,"Oat, Wild plant response rating",wild oat (Avena fatua); 62 g ai/ha,40
same,"Oat, Wild plant response rating",wild oat (Avena fatua); 125 g ai/ha,50
same,"Plant response rating, Barnyardgrass",[12]; 125 g ai/ha,0
same,"Plant response rating, Barnyardgrass",[12]; 500 g ai/ha,0
same,"Plant response rating, Ducksalad",[13]; 125 g ai/ha,90
same,"Plant response rating, Ducksalad",[13]; 500 g ai/ha,90
same,"Plant response rating, Rice",rice (Oryza sativa); 125 g ai/ha,0
same,"Plant response rating, Rice",rice (Oryza sativa); 500 g ai/ha,0
same,"Plant response rating, Sedge, Umbrella",[14]; 125 g ai/ha,60
same,"Plant response rating, Sedge, Umbrella",[14]; 500 g ai/ha,90
